Reference: patent publication US20240092779A1, “USP1 INHIBITORS AND USES THEREOF” (Zentaur Therapeutics USA Inc., priority 2022, published 2024)

Experiments:
[1] = test system: MDA-MB-436 subcutaneous human breast cancer model; assay: In vivo efficacy in MDA-MB-436 subcutaneous xenograft; conditions: NOD SCID mice, 28 days
Experimental: Anti-tumor efficacy of USP1 inhibitors were evaluated in mice using the MDA-MB-436 subcutaneous human breast cancer model that harbors the loss-of-function BRCA1 mutation. 6-8 weeks old female NOD SCID mice from Beijing Anikeeper Biotech Co., Ltd. were inoculated subcutaneously with 1×10^7 MDA-MB-436 tumor cells. When tumors reached a size of approximately 130 mm 3 mice were randomized into group of 5 or 9 and dosed via oral gavage once or twice daily for 28 days with either vehicle (twice daily, 9 animals), one dose of USP1 inhibitor 1-107 at 150 mg/kg (twice daily, 5 animals), three doses of USP1 inhibitor I-111 at […] (once daily, 9 animals per group), or one dose of USP1 inhibitor 1-124 at 150 mg/kg (twice daily, 5 animals). Body weight and tumor volume were measured twice per week. Tumor volume (TV) was calculated as mean and standard deviation of the mean for each treatment group. The percentage tumor growth inhibition (TGI) was calculated using the formula: TGI=(RTVvehicle−RTVtreatment)*100)/(RTVvehicle −1), where RTV is the mean relative volumes (RTV=TVDay terminal[…]) of the tumors in the treatment and the vehicle groups, respectively, on a given day from Day 0-Day 28 where Day 0 is the first day of treatment.
All treatment groups were well-tolerated, with various dose levels and dosing frequency for the duration of the treatment period from day 0 to day 28 in the tumor bearing mice, as shown in FIG. 2.

[2] = Liver microsomal stability (HLM); format: in vitro ADME; conditions: human, liver microsomes, human liver microsomes 0.5 mg/mL, 1 μM compound, NADPH
[3] = Solubility in FaSSIF (Fasted State Simulated Intestinal Fluid); format: physicochemical; conditions: kinetic from dmso stock, FaSSIF pH 6.5, 25° C.
Experimental: Solubility in FaSSIF (Fasted State Simulated Intestinal Fluid)
Certain Compounds of the Disclosure were assessed for the apparent solubility in FaSSIF.
0.420 g of NaOH, 3.438 g of NaH2PO4 and 6.186 g of NaCl were dissolved into about 900 mL ultrapure water. The solution was adjusted to the pH of 6.5 with 1N NaOH or 1N HCl. The solution was then diluted with ultrapure water to 1000 mL at room temperature. The resulting solution is used as buffer solution.
2.240 g of FaSSIF Powder was added to about 500 mL of above-mentioned buffer solution. The solution was stirred until powder was completely dissolved. Then the solution was diluted with buffer A to 1000 mL at room temperature. This solution is FaSSIF to be used in the following experiment.
15 μL of stock solution (10 mM) of each sample was placed into their proper 96-well rack. 485 μL of FaSSIF was added into each vial of the cap-less solubility sample plate. One stir stick was added to each vial and the vial was sealed using a molded PTFE/Silicone plug. The solubility sample plate was transferred to the Eppendorf Thermomixer Comfort plate shaker and shaked at 25° C. at 1100 RPM for 2 hours. After completion of the 2 hours, the stir sticks using a big magnet were removed. The samples from the solubility sample plate were transferred into the filter plate. Using the vacuum manifold, all the samples are filtered. Aliquot of 5 μL was taken from filtrate followed by addition of 5 μL DMSO and 490 μL of a mixture of H2O and acetonitrile containing internal standard (1:1).
3 μM Standards solution (STD) was prepared from the 10 mM DMSO STD plate.as following: transferring 6 μL into the remaining empty plate, adding 194 μL of DMSO to that plate to have a STD concentration of 300 μM. From the 300 μM DMSO STD plate, 5 μL solution was transferred into the remaining empty plate. Addition of 5 μL PBS and 490 μL of a mixture of H2O and acetonitrile containing internal standard (1:1) to that plate furnished a final STD concentration of 3 μM STD solution.
The samples are analyzed and quantified against the standard of known concentration using LC/MS/MS, calculating the solubility of the test compound as following (DF means the dilution factor):
[Sample solubility in FsSSIF (04)]=Area Ratio sample×DF sample×[STD]/Area Ratio STD

With `COc1ncnc(C2CC2)c1-c1ncc2cc(C3CCN(C)CC3)c(=O)n(Cc3ccc(-c4nc(C(F)(F)F)cn4C4CC4)cc3)c2n1` [Compound I-111] the “TGI (tumor growth inhibition)” value ([1]; 10 mg/kg QD oral gavage) was about 55%, the “TGI (tumor growth inhibition)” value ([1]; 30 mg/kg QD oral gavage) was about 80% and the “TGI (tumor growth inhibition)” value ([1]; 60 mg/kg QD oral gavage) was over 100%. It also gave a microsomal CLint at 1 μM [2] of under 10 µL/min/mg and a solubility at 2 h [3] of at least 100 µM.
